# Measured values from US8796246B2, “9, 10-secopregnane derivative and pharmaceutical” (Nippon Shinyaku Co., Ltd., priority 2006, dated 2014).
# Experiments:
# [1] = system: human acute myelogenous leukemia cell line HL-60; assay: Ability to induce differentiation of HL-60 cells (oxygen radical production after phorbol ester, WST-1); type: cell-based; settings: 72 hours incubation, then WST-1 and phorbol 12,13-didecanoate for 4 hours, absorbance at 450 nm
# [2] = Action to increase the urinary excretion of calcium (1), percutaneous administration; type: in vivo, SD male rats; settings: percutaneous 10 μg/200 μL/kg/day once a day for 4 days; for Calcium in Urine within 24 hours: accumulated excretion 0 to 24 hours; for Calcium in Urine within 48 hours: accumulated excretion 0 to 48 hours; for Calcium in Urine within 72 hours: accumulated excretion 0 to 72 hours; for Calcium in Urine within 96 hours: accumulated excretion 0 to 96 hours
# Protocol: The compound of the invention mentioned in Example 1, 36, 43, 47, 48, 55 or 70 or maxacalcitol in ethanol containing 0.5% DMSO was repeatedly subjected to a percutaneous administration (10 μg/200 μL/kg/day) once a day for 4 days onto the back of SD male rats (7 weeks of age). Ethanol containing 0.5% DMSO was administered to a control group. The calcium concentration in urine collected every 24 hours was measured and multiplied by the amount of urine to calculate the urinary excretion of calcium. The calcium excretion in urine shown in Table 3 indicates the accumulated calcium excretion from 0 to 24 hours, from 0 to 48 hours, from 0 to 72 hours, and from 0 to 96 hours.
# [3] = Metabolic rate in human liver microsome; type: in vitro ADME; settings: pooled human liver microsome 1 mg/mL protein, NADPH-regenerating system, 37° C., 2-60 minutes, HPLC
# [4] = Action to increase calcium concentration in serum, percutaneous administration; type: in vivo, SD male rats; settings: for Serum Calcium Concentration: percutaneous 33 μg/200 μL/kg/day once a day for 7 days, blood 24 hours after final administration
# Protocol: The compound of the invention mentioned in Example 1 or maxacalcitol in ethanol containing 0.3% DMSO was repeatedly subjected to percutaneous administration (33 μg/200 μL/kg/day) once a day for 7 days onto the back of SD male rats (7 weeks of age). Ethanol containing 0.3% DMSO was administered to a control group. At 24 hours after the final administration, blood was collected and the calcium concentration in serum was measured.
# [5] = Action to increase the urinary excretion of calcium (2), intravenous administration; type: in vivo, SD male rats; settings: intravenous 22.4 nmol/kg
# Protocol: The compound of the invention mentioned in Example 42, 61 or 66, or maxacalcitol in saline containing 0.1% Triton X 100/5.6% DMSO (22.4 nmol/kg) was subjected to an intravenous administration to SD male rats (7 weeks of age) Saline containing 0.1% Triton X 100/5.6% DMSO was administered to a control group. The calcium concentration in urine collected within 24 hours after the administration was measured and the urinary excretion of calcium ([calcium concentration in urine]×[amount of urine]) and the ratio of urinary excretion of calcium based on the control group ([calcium amount in urine in administration of the test compound]/[calcium amount in urine in the control group]) were calculated.
EC50 [1] [nM],Calcium in Urine within 24 hours [2] [mg],Calcium in Urine within 48 hours [2] [mg],Calcium in Urine within 72 hours [2] [mg],Calcium in Urine within 96 hours [2] [mg],Metabolic Rate [3] [pmol/min/mg],Serum Calcium Concentration [4] [mg/dL],EC50 ([1]; Homo sapiens) [nM],Calcium in Urine ([5]; urine collected within 24 hours after administration) [mg],"Ratio of Calcium in Urine (to control) ([5]; urine within 24 hours, test compound/control group) [%]",SMILES,effect on the calcium concentration in serum (in words) ([4]; percutaneous 33 μg/200 μL/kg/day for 7 days)
1.5,0.8,1.4,2.3,3.8,78,11.8,–,–,–,"C=C1/C(=C\C=C2/CCC[C@]3(C)[C@@H]([C@H](C)OC(=O)CCC(C)(C)O)CC[C@@H]23)C[C@@H](O)C[C@@H]1O [Compound of Example 1, (1S,3R,20S)-20-(4-hydroxy-4-methylpentanoyloxy)-9,10-secopregna-5Z,7E,10(19)-triene-1,3-diol]",–
–,2.6,4.5,8.5,13.9,10,15.0,5.4,2.3,460,"C=C1/C(=C\C=C2/CCC[C@]3(C)[C@@H]([C@H](C)OCCC(C)(C)O)CC[C@@H]23)C[C@@H](O)C[C@@H]1O [Maxacalcitol, (1S,3R,20S)-20-(3-hydroxy-3-methylbutyloxy)-9,10-secopregna-5Z,7E,10(19)-trien-1,3-diol, reference compound]",increased the calcium concentration in serum
